# Like-named read-outs stand apart in the source and are kept apart here.
# Columns and labels:
# [1] = test system: 22RV1 cells; conditions: Homo sapiens, 22Rv1, 144 h
# [2] = target: T1, androgen receptor (AR) splicing variant AR-v7 (Homo sapiens, UniProt P10275); assay: Degradation activity on androgen receptor splicing variant AR-v7 in 22RV1 cells (ELISA); assay type: cell-based; conditions: AR-v7 degradation in 22RV1 cells, 48 h
# T1 construct: The degradation activity of compounds on AR-v7 in 22RV1 cells; host or cells: 22RV1 cells
# T1 sequence (P10275 1-644 isoform P10275-3): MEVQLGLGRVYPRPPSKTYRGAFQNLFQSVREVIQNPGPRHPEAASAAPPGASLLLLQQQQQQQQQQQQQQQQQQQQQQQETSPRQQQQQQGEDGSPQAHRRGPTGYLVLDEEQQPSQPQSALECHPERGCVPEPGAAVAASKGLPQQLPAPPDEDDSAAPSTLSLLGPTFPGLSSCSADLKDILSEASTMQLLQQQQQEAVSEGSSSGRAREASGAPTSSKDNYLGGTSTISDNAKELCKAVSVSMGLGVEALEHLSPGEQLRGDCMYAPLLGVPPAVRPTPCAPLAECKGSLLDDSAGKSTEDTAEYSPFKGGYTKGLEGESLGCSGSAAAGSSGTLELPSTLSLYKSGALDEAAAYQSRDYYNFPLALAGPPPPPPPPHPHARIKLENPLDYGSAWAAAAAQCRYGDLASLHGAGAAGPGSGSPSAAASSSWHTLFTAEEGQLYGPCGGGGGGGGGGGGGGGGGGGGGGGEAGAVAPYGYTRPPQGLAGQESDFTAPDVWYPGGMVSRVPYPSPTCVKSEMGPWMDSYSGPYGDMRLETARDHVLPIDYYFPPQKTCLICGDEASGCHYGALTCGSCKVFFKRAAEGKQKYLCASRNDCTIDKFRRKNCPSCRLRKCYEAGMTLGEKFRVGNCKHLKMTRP
# [3] = read-out: 22RV1 IC50 (nM), 22RV1 cells, 6 days culture, CCK-8, OD 450 nm
smiles,measurement,setting,value
CC(C)(c1ccc(OCc2nccc(N3CC4(COC4)C3)n2)cc1)c1ccc(O[C@H]2C[C@H](Nc3ccc4c(c3)C(=O)N(C3CCC(=O)NC3=O)C4=O)C2)cc1 (stereo partly drawn) [Example 544],IC50,[1]; [3],12 nM
"CC(C)(c1ccc(OCc2ccnc(N3CC4(COC4)C3)n2)cc1)c1ccc(O[C@H]2C[C@H](Nc3ccc4c(c3)C(=O)N(C3CCC(=O)NC3=O)C4=O)C2)c(F)c1 (stereo partly drawn) [Example 364, 5-(((1r,3r)-3-(4-(2-(4-((2-(2-oxa-6-azaspiro[3.3]heptane-6-yl)pyrimidin-4-yl)methoxy)phenyl)isopropan-2-yl)-2-fluorophenoxy)cyclobutyl)amino)-2-(2,6-dioxopiperidin-3-yl)isoindolin-1,3-dione]",IC50,[1]; read-out: 22RV1 IC50 (nM),12 nM
CC(C)(c1ccc(OCc2cc(N3CC4(COC4)C3)ncn2)cc1)c1ccc(OC2CC(Nc3ccc4c(c3)C(=O)N(C3CCC(=O)NC3=O)C4=O)C2)cc1 (stereo not drawn) [Example 532],IC50,[1]; [3],9 nM
CC(C)(c1ccc(OCCCCCCCOCCCOCCCNc2ccc3c(c2)C(=O)N(C2CCC(=O)NC2=O)C3=O)cc1)c1ccc(OCc2ccnc(NS(C)(=O)=O)n2)cc1 (stereo not drawn) [Example 24],DC50,[2]; numeric values,> 10000 nM
"CC(C)(c1ccc(OCc2ccnc(N3CC4(COC4)C3)n2)cc1)c1ccc(OC2CC3(CC(Nc4ccc5c(c4)C(=O)N(C4CCC(=O)NC4=O)C5=O)C3)C2)cc1 (stereo not drawn) [Example 567, 5-((6-(4-(2-(4-((2-(2-oxa-6-azaspiro[3.3]heptan-6-yl)pyrimidin-4-yl)methoxy)phenyl)propan-2-yl)phenoxy)spiro[3.3]heptan-2-yl)amino)-2-(2,6-dioxopiperidin-3-yl)isoindolin-1,3-dione]",DC50,[2]; class symbols,101 to 1000 nM
"CC(C)(c1ccc(OCc2ccnc(OC3CN(C4CC4)C3)n2)cc1)c1ccc(O[C@H]2C[C@@H](Nc3ccc4c(c3)C(=O)N(C3CCC(=O)NC3=O)C4=O)C2)cc1 (stereo partly drawn) [Example 467, 5-(((1s,3s)-3-(4-(2-(4-((2-((1-cyclopropylazetidin-3-yl)oxy)pyrimidin-4-yl)methoxy)phenyl)propan-2-yl)phenoxy)cyclobutyl)amino)-2-(2,6-dioxopiperidin-3-yl)isoindolin-1,3-dione]",DC50,[2]; class symbols,11 to 100 nM
"CN1CCN(c2ncc3c(n2)CN(c2ccc(C(C)(C)c4ccc(O[C@H]5C[C@H](Nc6ccc7c(c6)C(=O)N(C6CCC(=O)NC6=O)C7=O)C5)cc4)cc2)CC3)CC1 (stereo partly drawn) [Example 192, 2-(2,6-dioxopiperidin-3-yl)-5-((1r,3r)-3-(4-(2-(2-(4-methylpiperazin-1-yl)-5,8-dihydropyrido[3,4-d]pyrimidin-7(6H)-phenyl)propan-2-ylphenoxy)cyclobutyl)amino)isoindolin-1,3-dione]",DC50,[2]; class symbols,11 to 100 nM
Cc1nnc(-c2cc(Oc3ccc(C(C)(C)c4ccc(O[C@H]5C[C@H](Nc6ccc7c(c6)C(=O)N(C6CCC(=O)NC6=O)C7=O)C5)cc4)cc3)ncn2)o1 (stereo partly drawn) [Example 590],DC50,[2]; class symbols,11 to 100 nM
"CC(C)(c1ccc(OCCCCCCCOCCN2CCN(c3ccc4c(c3)C(=O)N(C3CCC(=O)NC3=O)C4=O)CC2)cc1)c1ccc(OCc2ccnc(NS(C)(=O)=O)n2)cc1 (stereo not drawn) [Example 2, N-(4-((4-(2-(4-((7-(2-(4-(2-(2,6-dioxopiperidin-3-yl)-1,3-dioxoisoindolin-5-yl)piperazin-1-yl)ethoxy)heptyl)oxy)phenyl)propan-2-yl)phenoxy)methyl)pyrimidin-2-yl)methanesulfonamide]",DC50,[2]; class symbols,101 to 1000 nM
"CC(C)(c1ccc(OCc2ccnc(N3CC4(CCNCC4)C3)n2)cc1)c1ccc(O[C@H]2C[C@@H](Nc3ccc4c(c3)C(=O)N(C3CCC(=O)NC3=O)C4=O)C2)cc1 (stereo partly drawn) [Example 85, 5-(((1s,3s)-3-(4-(2-(4-((2-(2,7-diazaspiro[3.5]nonan-2-yl)pyrimidin-4-yl)methoxy)phenyl)propan-2-yl)phenoxy)cyclobutyl)amino)-2-(2,6-dioxopiperidin-3-yl)isoindolin-1,3-dione]",DC50,[2]; class symbols,11 to 100 nM
Cc1nc(-c2ncc(Oc3ccc(C(C)(C)c4ccc(O[C@H]5C[C@H](Nc6ccc7c(c6)C(=O)N(C6CCC(=O)NC6=O)C7=O)C5)cc4)cc3)cc2C(F)(F)F)no1 (stereo partly drawn) [Example 211],DC50,[2]; class symbols,11 to 100 nM
CC(C)(c1ccc(OCCCCCCCCOCCCCNc2ccc3c(c2)C(=O)N(C2CCC(=O)NC2=O)C3=O)cc1)c1ccc(OCc2cnc(NS(C)(=O)=O)nc2)cc1 (stereo not drawn) [Example 51],DC50,[2]; class symbols,101 to 1000 nM
"CC(=O)c1nccc(COc2ccc(C(C)(C)c3ccc(O[C@H]4CC[C@H](Nc5ccc6c(c5)C(=O)N(C5CCC(=O)NC5=O)C6=O)CC4)cc3)cc2)n1 (stereo partly drawn) [Example 353, 5-(((1r,4r)-4-(4-(2-(4-((2-acetylpyrimidin-4-yl)methoxy)phenyl)isopropan-2-yl)phenoxy)cyclohexyl)amino)-2-(2,6-dioxopiperidin-3-yl)isoindolin-1,3-dione]",DC50,[2]; class symbols,1000 to 5000 nM
Cc1nc(-c2ccc(Oc3ccc(C(C)(C)c4ccc(O[C@H]5C[C@@H](Nc6ccc7c(c6)C(=O)N(C6CCC(=O)NC6=O)C7=O)C5)cc4)cc3)nc2)no1 (stereo partly drawn) [Example 213],DC50,[2]; class symbols,11 to 100 nM
CC(C)(c1ccc(Oc2cnc(C(=O)C3CCC3)nc2)cc1)c1ccc(O[C@H]2C[C@H](Nc3ccc4c(c3)C(=O)N(C3CCC(=O)NC3=O)C4=O)C2)cc1 (stereo partly drawn) [Example 262],DC50,[2]; class symbols,11 to 100 nM
CN1CC(Oc2nccc(COc3ccc(C(C)(C)c4ccc(O[C@H]5C[C@@H](Nc6ccc7c(c6)C(=O)N(C6CCC(=O)NC6=O)C7=O)C5)cc4)cc3)n2)C1 (stereo partly drawn) [Example 407],DC50,[2]; class symbols,11 to 100 nM
"CC(C)(c1ccc(OCCCOCCCOCCCNc2ccc3c(c2)C(=O)N(C2CCC(=O)NC2=O)C3=O)cc1)c1ccc(OCc2ccnc(NS(C)(=O)=O)n2)cc1 (stereo not drawn) [Example 20, N-(4-((4-(2-(4-(3-(3-(3-((2-(2,6-dioxopiperidin-3-yl)-1,3-dioxoisoindolin-5-yl)amino)propoxy)propoxy)propoxy)phenyl)propan-2-yl)phenoxy)methyl)pyrimidin-2-yl)methanesulfonamide]",DC50,[2]; class symbols,1000 to 5000 nM
"CC(C)(c1ccc(OCCCNc2ccc3c(c2)C(=O)N(C2CCC(=O)NC2=O)C3=O)cc1)c1ccc(OCc2nc(C(=O)N3CCC3)no2)cc1 (stereo not drawn) [Example 139, 5-((3-(4-(2-(4-((3-(azetidin-1-carbonyl)-1,2,4-oxadiazol-5-yl)methoxy)phenyl)propan-2-yl)phenoxy)propyl)amino)-2-(2,6-dioxopiperidin-3-yl)isoindolin-1,3-dione]",DC50,[2]; class symbols,101 to 1000 nM
"CC(C)(c1ccc(OCCCCOCCCCNc2ccc3c(c2)C(=O)N(C2CCC(=O)NC2=O)C3=O)cc1)c1ccc(OCc2ccnc(NS(C)(=O)=O)n2)cc1 (stereo not drawn) [Example 54, N-(4-((4-(2-(4-(4-(4-((2-(2,6-dioxopiperidin-3-yl)-1,3-dioxoisoindolin-5-yl)amino)butoxy)butoxy)phenyl)isopropan-2-yl)phenoxy)methyl)pyrimidin-2-yl)methanesulfonamide]",DC50,[2]; class symbols,101 to 1000 nM
CC(C)(c1ccc(OCCCNc2cccc3c2C(=O)N(C2CCC(=O)NC2=O)C3=O)cc1)c1ccc(OCc2ccnc(N3CCCCC3)n2)cc1 (stereo not drawn) [Example 555],DC50,[2]; class symbols,101 to 1000 nM
CC(C)(c1ccc(Oc2ccnc(N3CC4(COC4)C3)n2)cc1)c1ccc(O[C@H]2C[C@@H](Nc3ccc4c(c3)C(=O)N(C3CCC(=O)NC3=O)C4=O)C2)cc1 (stereo partly drawn) [Example 459],DC50,[2]; class symbols,11 to 100 nM
Cc1nc(-c2cnc(Oc3ccc(C(C)(C)c4ccc(O[C@H]5C[C@H](Nc6ccc7c(c6)C(=O)N(C6CCC(=O)NC6=O)C7=O)C5)cc4)cc3)cn2)no1 (stereo partly drawn) [Example 586],DC50,[2]; class symbols,11 to 100 nM
"CC(=O)c1nccc(COc2ccc(C(C)(C)c3ccc(OCCCCCCCCOCCCCNc4ccc5c(c4)C(=O)N(C4CCC(=O)NC4=O)C5=O)cc3)cc2)n1 (stereo not drawn) [Example 136, 5-((4-((8-(4-(2-(4-((2-acetylpyrimidin-4-yl)methoxy)phenyl)propan-2-yl)phenoxy)octyl)oxy)butyl)amino)-2-(2,6-dioxopiperidin-3-yl)isoindolin-1,3-dione]",DC50,[2]; class symbols,101 to 1000 nM
"CC(C)(c1ccc(OCc2ccnc(N3C[C@@H]4C[C@H]3CN4)n2)cc1)c1ccc(O[C@H]2C[C@@H](Nc3ccc4c(c3)C(=O)N(C3CCC(=O)NC3=O)C4=O)C2)cc1 (stereo partly drawn) [Example 260, 5-(((1s,3s)-3-(4-(2-(4-((2-((1S,4S)-2,5-diazabicyclo[2.2.1]heptan-2-yl)pyrimidin-4-yl)methoxy)phenyl)propan-2-yl)phenoxy)cyclobutyl)amino)-2-(2,6-dioxopiperidin-3-yl)isoindolin-1,3-dione]",DC50,[2]; class symbols,11 to 100 nM
"CC(C)(c1ccc(CNc2ccc3c(c2)C(=O)N(C2CCC(=O)NC2=O)C3=O)cc1)c1ccc(OCc2ccnc(N3CC4(COC4)C3)n2)cc1 (stereo not drawn) [Example 507, 5-((4-(2-(4-((2-(2-oxa-6-azaspiro[3.3]heptan-6-yl)pyrimidin-4-yl)methoxy)phenyl)propan-2-yl)benzyl)amino)-2-(2,6-dioxopiperidin-3-yl)isoindolin-1,3-dione]",DC50,[2]; class symbols,11 to 100 nM
Cc1nc(-c2ccc(Oc3ccc(C(C)(C)c4ccc(O[C@H]5C[C@H](Nc6ccc7c(c6)C(=O)N(C6CCC(=O)NC6=O)C7=O)C5)cc4)cc3)nc2)no1 (stereo partly drawn) [Example 546],DC50,[2]; class symbols,11 to 100 nM
CC(C)(c1ccc(Oc2ncnc(N3CC(N4CCC4)C3)c2F)cc1)c1ccc(O[C@H]2C[C@@H](Nc3ccc4c(c3)C(=O)N(C3CCC(=O)NC3=O)C4=O)C2)cc1 (stereo partly drawn) [Example 575],DC50,[2]; class symbols,11 to 100 nM
